Values after ≈ are worked out from the molar mass of the structure shown.
Assays:
Type in all cases: functional
[1] = tested on: Staphylococcus aureus; assay: Antibacterial activity against methicillin-resistant Staphylococcus aureus 531220 clinical isolate after 20 to 24 hrs by two-fold microdilution method
[2] = tested on: Staphylococcus aureus; assay: Antibacterial activity against methicillin-resistant Staphylococcus aureus 1029025 clinical isolate after 20 to 24 hrs by two-fold microdilution method
[3] = tested on: Staphylococcus aureus; assay: Antibacterial activity against methicillin-resistant Staphylococcus aureus 523005 clinical isolate after 20 to 24 hrs by two-fold microdilution method
[4] = tested on: Staphylococcus aureus; assay: Antibacterial activity against methicillin-resistant Staphylococcus aureus 110325 clinical isolate after 20 to 24 hrs by two-fold microdilution method
[5] = tested on: Staphylococcus aureus; assay: Antibacterial activity against methicillin-resistant Staphylococcus aureus 1215028 clinical isolate after 20 to 24 hrs by two-fold microdilution method
[6] = tested on: Staphylococcus aureus; assay: Antibacterial activity against methicillin-resistant Staphylococcus aureus 1214023 clinical isolate after 20 to 24 hrs by two-fold microdilution method
[7] = tested on: Streptococcus pneumoniae; assay: Antibacterial activity against Streptococcus pneumoniae ATCC 6305 after 20 to 24 hrs by two-fold microdilution method
[8] = tested on: Staphylococcus aureus; assay: Antibacterial activity against methicillin-resistant Staphylococcus aureus 219236 clinical isolate after 20 to 24 hrs by two-fold microdilution method
[9] = tested on: Staphylococcus aureus; assay: Antibacterial activity against methicillin-resistant Staphylococcus aureus 110910-2 clinical isolate after 20 to 24 hrs by two-fold microdilution method
[10] = tested on: Staphylococcus aureus; assay: Antibacterial activity against methicillin-resistant Staphylococcus aureus 20339 clinical isolate after 20 to 24 hrs by two-fold microdilution method
[11] = tested on: Staphylococcus aureus; assay: Antibacterial activity against methicillin-resistant Staphylococcus aureus 221022 clinical isolate after 20 to 24 hrs by two-fold microdilution method
[12] = tested on: Streptococcus pyogenes; assay: Antibacterial activity against Streptococcus pyogenes ATCC 19615 after 20 to 24 hrs by two-fold microdilution method
[13] = tested on: Staphylococcus aureus; assay: Antibacterial activity against methicillin-resistant Staphylococcus aureus 224001 clinical isolate after 20 to 24 hrs by two-fold microdilution method
[14] = tested on: Staphylococcus aureus; assay: Antibacterial activity against methicillin-resistant Staphylococcus aureus GLH14 clinical isolate after 20 to 24 hrs by two-fold microdilution method
[15] = tested on: Staphylococcus aureus; assay: Antibacterial activity against methicillin-resistant Staphylococcus aureus 12308 clinical isolate after 20 to 24 hrs by two-fold microdilution method
[16] = tested on: Staphylococcus aureus; assay: Antibacterial activity against methicillin-resistant Staphylococcus aureus 316031 clinical isolate after 20 to 24 hrs by two-fold microdilution method
[17] = tested on: Staphylococcus aureus; assay: Antibacterial activity against methicillin-resistant Staphylococcus aureus 908046 clinical isolate after 20 to 24 hrs by two-fold microdilution method
[18] = tested on: Staphylococcus aureus; assay: Antibacterial activity against methicillin-resistant Staphylococcus aureus 20106-2 clinical isolate after 20 to 24 hrs by two-fold microdilution method
[19] = tested on: Staphylococcus aureus; assay: Antibacterial activity against methicillin-resistant Staphylococcus aureus 118038 clinical isolate after 20 to 24 hrs by two-fold microdilution method
[20] = tested on: Staphylococcus aureus; assay: Antibacterial activity against methicillin-resistant Staphylococcus aureus 919205 clinical isolate after 20 to 24 hrs by two-fold microdilution method
[21] = tested on: Staphylococcus aureus; assay: Antibacterial activity against methicillin-resistant Staphylococcus aureus 110834 clinical isolate after 20 to 24 hrs by two-fold microdilution method
[22] = tested on: Staphylococcus aureus; assay: Antibacterial activity against methicillin-resistant Staphylococcus aureus 3250299 clinical isolate after 20 to 24 hrs by two-fold microdilution method
[23] = tested on: Escherichia coli; assay: Antibacterial activity against Escherichia coli ATCC 25922 after 20 to 24 hrs by two-fold microdilution method
[24] = tested on: Staphylococcus aureus; assay: Antibacterial activity against methicillin-resistant Staphylococcus aureus 214026 clinical isolate after 20 to 24 hrs by two-fold microdilution method
[25] = tested on: Staphylococcus aureus; assay: Antibacterial activity against methicillin-resistant Staphylococcus aureus 1012029 clinical isolate after 20 to 24 hrs by two-fold microdilution method
[26] = tested on: Staphylococcus aureus; assay: Antibacterial activity against methicillin-resistant Staphylococcus aureus 112047 clinical isolate after 20 to 24 hrs by two-fold microdilution method
[27] = tested on: Staphylococcus aureus; assay: Antibacterial activity against methicillin-resistant Staphylococcus aureus 1128040 clinical isolate after 20 to 24 hrs by two-fold microdilution method
[28] = tested on: Staphylococcus aureus; assay: Antibacterial activity against methicillin-resistant Staphylococcus aureus 829034 clinical isolate after 20 to 24 hrs by two-fold microdilution method
[29] = tested on: Staphylococcus aureus; assay: Antibacterial activity against methicillin-resistant Staphylococcus aureus 502025 clinical isolate after 20 to 24 hrs by two-fold microdilution method
[30] = tested on: Staphylococcus aureus; assay: Antibacterial activity against methicillin-resistant Staphylococcus aureus 212014 clinical isolate after 20 to 24 hrs by two-fold microdilution method
[31] = tested on: Staphylococcus aureus; assay: Antibacterial activity against methicillin-resistant Staphylococcus aureus ATCC 43300 after 20 to 24 hrs by two-fold microdilution method
[32] = tested on: Staphylococcus aureus; assay: Antibacterial activity against methicillin-resistant Staphylococcus aureus 1101016 clinical isolate after 20 to 24 hrs by two-fold microdilution method
[33] = tested on: Staphylococcus aureus; assay: Antibacterial activity against methicillin-resistant Staphylococcus aureus 122820-2 clinical isolate after 20 to 24 hrs by two-fold microdilution method
[34] = tested on: Staphylococcus epidermidis; assay: Antibacterial activity against Staphylococcus epidermidis ATCC 12228 after 20 to 24 hrs by two-fold microdilution method
[35] = tested on: Staphylococcus aureus; assay: Antibacterial activity against methicillin-resistant Staphylococcus aureus 1024004-2 clinical isolate after 20 to 24 hrs by two-fold microdilution method
[36] = tested on: Staphylococcus aureus; assay: Antibacterial activity against methicillin-resistant Staphylococcus aureus 414244 clinical isolate after 20 to 24 hrs by two-fold microdilution method
[37] = tested on: Staphylococcus aureus; assay: Antibacterial activity against methicillin-resistant Staphylococcus aureus clinical isolate after 20 to 24 hrs by two-fold microdilution method
[38] = tested on: Staphylococcus aureus; assay: Antibacterial activity against methicillin-resistant Staphylococcus aureus 1023043 clinical isolate after 20 to 24 hrs by two-fold microdilution method
[39] = tested on: Staphylococcus aureus; assay: Antibacterial activity against methicillin-resistant Staphylococcus aureus 1113041 clinical isolate after 20 to 24 hrs by two-fold microdilution method
[40] = tested on: Staphylococcus aureus; assay: Antibacterial activity against methicillin-resistant Staphylococcus aureus 19950 clinical isolate after 20 to 24 hrs by two-fold microdilution method
[41] = tested on: Staphylococcus aureus; assay: Antibacterial activity against methicillin-resistant Staphylococcus aureus 112430 clinical isolate after 20 to 24 hrs by two-fold microdilution method
[42] = tested on: Staphylococcus aureus; assay: Antibacterial activity against methicillin-resistant Staphylococcus aureus 131215 clinical isolate after 20 to 24 hrs by two-fold microdilution method
[43] = tested on: Staphylococcus aureus; assay: Antibacterial activity against methicillin-resistant Staphylococcus aureus 110414 clinical isolate after 20 to 24 hrs by two-fold microdilution method
[44] = tested on: Staphylococcus aureus; assay: Antibacterial activity against methicillin-resistant Staphylococcus aureus 531026 clinical isolate after 20 to 24 hrs by two-fold microdilution method
[45] = tested on: Staphylococcus aureus; assay: Antibacterial activity against methicillin-resistant Staphylococcus aureus 305026 clinical isolate after 20 to 24 hrs by two-fold microdilution method
[46] = tested on: Staphylococcus aureus; assay: Antibacterial activity against methicillin-resistant Staphylococcus aureus 519030 clinical isolate after 20 to 24 hrs by two-fold microdilution method
[47] = tested on: Staphylococcus aureus; assay: Antibacterial activity against methicillin-resistant Staphylococcus aureus 109016 clinical isolate after 20 to 24 hrs by two-fold microdilution method

## O=C1c2cccnc2C(=O)c2c1c(C(=O)OCCCCN1CCOCC1)c1ccc(Br)cn21
[1]
  MIC: 0.25 µg/mL (≈ 0.488 µM)
[2]
  MIC: 0.5 µg/mL (≈ 0.976 µM)
[3]
  MIC: 0.5 µg/mL (≈ 0.976 µM)
[4]
  MIC: 0.25 µg/mL (≈ 0.488 µM)
[5]
  MIC: 0.5 µg/mL (≈ 0.976 µM)
[6]
  MIC: 0.031 µg/mL (≈ 0.0605 µM)
[7]
  MIC: 4 µg/mL (≈ 7.81 µM)
[8]
  MIC: 0.063 µg/mL (≈ 0.123 µM)
[9]
  MIC: 0.5 µg/mL (≈ 0.976 µM)
[10]
  MIC: 0.5 µg/mL (≈ 0.976 µM)
[11]
  MIC: 0.5 µg/mL (≈ 0.976 µM)
[12]
  MIC: 4 µg/mL (≈ 7.81 µM)
[13]
  MIC: 1 µg/mL (≈ 1.95 µM)
[14]
  MIC: 0.5 µg/mL (≈ 0.976 µM)
[15]
  MIC: 0.25 µg/mL (≈ 0.488 µM)
[16]
  MIC: 0.5 µg/mL (≈ 0.976 µM)
[17]
  MIC: 0.125 µg/mL (≈ 0.244 µM)
[18]
  MIC: 0.5 µg/mL (≈ 0.976 µM)
[19]
  MIC: 0.5 µg/mL (≈ 0.976 µM)
[20]
  MIC: 1 µg/mL (≈ 1.95 µM)
[21]
  MIC: 0.25 µg/mL (≈ 0.488 µM)
[22]
  MIC: 0.5 µg/mL (≈ 0.976 µM)
[23]
  MIC: > 16 µg/mL
[24]
  MIC: 0.063 µg/mL (≈ 0.123 µM)
[25]
  MIC: 0.25 µg/mL (≈ 0.488 µM)
[26]
  MIC: 0.25 µg/mL (≈ 0.488 µM)
[27]
  MIC: 0.25 µg/mL (≈ 0.488 µM)
[28]
  MIC: 0.5 µg/mL (≈ 0.976 µM)
[29]
  MIC: 0.5 µg/mL (≈ 0.976 µM)
[30]
  MIC: 0.125 µg/mL (≈ 0.244 µM)
[31]
  MIC: 0.063 µg/mL (≈ 0.123 µM)
[32]
  MIC: 0.25 µg/mL (≈ 0.488 µM)
[33]
  MIC: 0.125 µg/mL (≈ 0.244 µM)
[34]
  MIC: ≤ 0.0078 µg/mL
[35]
  MIC: 0.5 µg/mL (≈ 0.976 µM)
[36]
  MIC: 1 µg/mL (≈ 1.95 µM)
[37]
  MIC50: 0.5 µg/mL (≈ 0.976 µM)
  MIC90: 1 µg/mL (≈ 1.95 µM)
[38]
  MIC: 0.25 µg/mL (≈ 0.488 µM)
[39]
  MIC: 0.5 µg/mL (≈ 0.976 µM)
[40]
  MIC: 1 µg/mL (≈ 1.95 µM)
[41]
  MIC: 0.5 µg/mL (≈ 0.976 µM)
[42]
  MIC: 0.125 µg/mL (≈ 0.244 µM)
[43]
  MIC: 0.5 µg/mL (≈ 0.976 µM)
[44]
  MIC: 0.25 µg/mL (≈ 0.488 µM)
[45]
  MIC: 0.125 µg/mL (≈ 0.244 µM)
[46]
  MIC: 1 µg/mL (≈ 1.95 µM)
[47]
  MIC: 0.5 µg/mL (≈ 0.976 µM)

From ChEMBL document CHEMBL4004803, “Syntheses and antibacterial activity of soluble 9-bromo substituted indolizinoquinoline-5,12-dione derivatives” (Eur J Med Chem, 2017)
